This is an account of results in PMC4456386, “Ligand Recognition of the Major Birch Pollen Allergen Bet v 1 is Isoform Dependent” (PLoS ONE, 2015).

Data set [1] concerns the target T1, Bet v 1a (Betula pendula, UniProt P15494).
T1 construct: made in house
Nature of the data set: 1H-15N HSQC NMR titration (chemical shift perturbation) of 15N-Bet v 1a. It counts as binding, Betula verrucosa. Conditions: for Kd per residue / Kd: Bet v 1a. As for the experimental part: (§1) All NMR experiments were performed at 298 K in 50 mM sodium phosphate buffer, 50 mM NaCl, pH 7.0, 10% deuterium oxide (^2H2O) with ^15N-uniformly labelled Bet v 1 isoforms using Bruker Avance 700 MHz and Avance 800 MHz spectrometers with cryogenically cooled triple-resonance probes equipped with pulsed field-gradient capabilities. NMR data were processed using NMRPipe and visualized with NMRViewJ [89]. Three-dimensional ^15N-edited NOESY (nuclear Overhauser enhancement spectroscopy, mixing times 120 ms) experiments to assign chemical shifts were obtained with 500 μM ^15N-labeled samples of Bet v 1 isoform d or m and yielded 91% of assigned residues for Bet v 1d and 89% for Bet v 1m. The sequence-specific assignments of the amide resonances of Bet v 1a are reported elsewhere.
(§2) Interaction of Q3OS with the Bet v 1 isoforms was measured by incubating 700 μM Q3OS with 50 μM of each ^15N-labeled Bet v 1 isoform in 50 mM sodium phosphate, 50 mM NaCl buffer, pH 7.0.
(§3) For titration experiments all other flavonoids were dissolved in deuterated DMSO, while glucose and galactose were dissolved in 50 mM sodium phosphate buffer, 50 mM NaCl, pH 7.0, 10% deuterium oxide and titrated stepwise to a final excess of up to 17-fold to protein samples (ca. 100 μM). […] CSPs for ligand binding were calculated based on Eq (2): […] (2) ΔδHN and ΔδN, chemical shift differences of amide proton and nitrogen resonances, respectively, in ppm.
(§4) K d values for flavonoid binding were determined with NMRViewJ [89]. All analysable amino acid residues that were unaffected by DMSO addition and showing CSPs > 0.08 ppm were fitted to a quadratic binding curve with default settings, and an average K d app was calculated (Table 1 and S1–S3 Tables). The CSPs of all residues showing CSPs > 0.04 ppm were mapped either on models of Bet v 1d and Bet v 1m or on the Bet v 1a structure (pdb code 1BV1, [29]).

Data set [2] has as its system serum IgE binding to surface-coated Bet v 1a, Bet v 1d and Bet v 1m. Nature of the data set: Indirect ELISA for IgE binding to Bet v 1 isoforms. Also noted: species or system human. Conditions: for influence of ligand on IgE binding of Bet v 1 isoforms: 5-fold molar excess of ligand, isoforms a, d, m. An excerpt: (§5) Fifteen sera of birch pollen-allergic subjects were collected, tested, and pooled according to the guideline of the European Medicines Agency (EMEA/CHMP/BWP/304831/2007). The serum pool is routinely used for batch-release testing of birch pollen-derived allergenic products at the Paul-Ehrlich-Institut. The same serum pool was used for both, ELISA and mediator release assays.
For IgE-ELISA experiments, Maxisorp plates (Nunc via Fisher Scientific) were coated overnight at room temperature with 50 ng/100 μl recombinant Bet v 1 isoforms a, d, or m with a 5-fold molar excess of quercetin-3-O-sophorose, rutin, quercetin, quercetin-3-O-glucoside, quercetin-3-O-galactoside, or sophorose, respectively, in phosphate-buffered saline (PBS). After blocking with PBS containing 2% bovine serum albumin (BSA) these plates and an uncoated control were incubated with a dilution series of a serum pool of birch-pollen allergic subjects for 1 h at room temperature with PBS containing 0.05% Tween 20 and 0.1% BSA. Allergen-specific human IgE was detected with a horseradish peroxidase-conjugated mouse anti-human IgE antibody (Clone B3102E8, Southern biotech via Biozol, Eching, Germany) diluted 1:1000. 3,3′,5,5′-tetramethylbenzidine (Roth, Karlsruhe) was used as substrate for horseradish peroxidase, and the absorbance at 450 nm was measured after stopping the reaction with 25% H2SO4.
Background: An ELISA detects its analyte on a solid surface through an enzyme-linked reagent.

Data set [3] deals with T2, Bet v 1m (Betula pendula, UniProt P43186).
T2 construct: made in house
Nature of the data set: 1H-15N HSQC NMR titration (chemical shift perturbation) of 15N-Bet v 1m. It counts as binding, Betula verrucosa. As to the method: as §1, §2, §3, §4

The target of another data set is T3, Bet v 1d (Betula pendula, UniProt P43177).
T3 construct: made in house
Nature of the data set: 1H-15N HSQC NMR titration (chemical shift perturbation) of 15N-Bet v 1d. In kind it is binding, Betula verrucosa. Conditions: for binding to Bet v 1d (in words): 1H-15N HSQC titration, up to 15-fold excess; for Dissociation constant Kd (averaged Kd app): NMR, Bet v 1d, average of all analysable residues with CSPs > 0.08 ppm, ± standard deviation. As to the method:
as §1, §2, §3, §4

For data set [4], the target named is T2, Bet v 1m. As to the kind of experiment: 1H-15N HSQC NMR titration (chemical shift perturbation) of 15N-Bet v 1m. In kind it is binding, Betula verrucosa. Conditions: 1H-15N HSQC titration, up to 15-fold excess.
Data set [5] can be described thus: UV/VIS absorption spectra of unbound flavonoids. In kind it is physicochemical. The note with it: pH 7.0. As to the method: All flavonoids and Bet v 1 isoforms were dissolved in 50 mM sodium phosphate, 50 mM NaCl, 10% (v/v) DMSO, pH 7.0, to a final concentration of 10 to 20 μM in 500 μl. Absorption spectra from 200–800 nm were recorded at 25°C in a 1 cm quartz cuvette (Hellma GmbH) using a 8453 UV-visible spectrophotometer (Agilent).

Data set [6] has as its system humanized rat basophil leukemia (RBL) cells. Nature of the data set: β-Hexosaminidase release (mediator release) assay. It counts as cell-based. As for the experimental part:
as §5
The mediator release assay was performed according to an established protocol. […] After washing, cells were stimulated with serial dilutions of Bet v 1 isoforms a, d, or m in Tyrode's buffer containing […]. For complex formation, the Bet v 1 isoforms were incubated overnight with a 5-fold molar excess of Q3OS, rutin, quercetin, Q3OGlc, Q3OGal, or sophorose, respectively, before stimulating the cells. Degranulation was quantified by photometric measurement of β-hexosaminidase activity in the culture supernatants. The percentage of β-hexosaminidase activity relative to cells lysed with Triton X-100 (Sigma-Aldrich, Steinheim, Germany) was calculated and corrected for spontaneous release (sensitized cells without allergen).

The target in data set [7] is T1, Bet v 1a. Conditions: Fluorescence, read-out: Dissociation constant Kd; cited from earlier work.
Setting [8] is: one value per residue with Δδnorm > 0.08 ppm (residue named left of the cell), Int. Ex. = intermediate exchange.
Where [9] appears, read: Dissociation constant Kd (averaged Kd app), NMR, average of all analysable residues with CSPs > 0.08 ppm, ± standard deviation.

Values joined by “and” are separate entries in the source; they are usually repeats but may differ in a detail not shown here. Equal entries are not always repeated. “Also recorded” adds a separate entry of the source. Where two headings read alike, the source gives them in different places.

T3 sequence (P43177 whole entry): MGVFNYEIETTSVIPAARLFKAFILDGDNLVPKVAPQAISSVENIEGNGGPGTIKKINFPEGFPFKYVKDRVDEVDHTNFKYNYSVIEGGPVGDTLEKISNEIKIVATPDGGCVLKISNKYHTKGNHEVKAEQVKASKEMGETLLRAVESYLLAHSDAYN
T1 sequence (P15494 whole entry): as the sequence (P43177 whole entry) above, with I8T, V31F, N58S, V92I, C113S, V114I, N126D counted along it
T2 sequence (P43186 whole entry): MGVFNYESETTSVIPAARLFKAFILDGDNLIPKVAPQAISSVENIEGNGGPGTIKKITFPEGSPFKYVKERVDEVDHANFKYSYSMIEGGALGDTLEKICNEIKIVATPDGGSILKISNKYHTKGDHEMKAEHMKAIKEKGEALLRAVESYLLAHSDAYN

`O=c1c(O[C@@H]2O[C@H](CO)[C@@H](O)[C@H](O)[C@H]2O)c(-c2ccc(O)c(O)c2)oc2cc(O)cc(O)c12` [Q3OGlc, quercetin-3-O-glucoside]: the “binding to Bet v 1a (in words)” value on Bet v 1a [1] (1H-15N HSQC titration) is “weak”. Besides, the Kd per residue result on Bet v 1a [1] (setting [8]) and at Bet v 1m [3] (setting [8]) was “Int. Ex” throughout. In addition, the Kd on Bet v 1a [1] (setting [9]) was 288 µM; on Bet v 1a [1] (Kd per residue, one value per residue with Δδnorm > 0.08 ppm (residue named left of the cell), Int. Ex. = intermediate exchange), 357 µM and 259 µM and 285 µM and 252 µM; at Bet v 1m [3] (setting [9]), less than 5 µM. In addition, the “influence of ligand on IgE binding of Bet v 1 isoforms” value in data set [2] was “did not modify IgE-binding”. Besides, the “binding to Bet v 1d (in words)” value at Bet v 1d was “Weak affinity; also recorded: did not produce significant CSPs”. On Bet v 1d, the “Dissociation constant Kd (averaged Kd app)” value is “No binding”. On Bet v 1m [4], the “binding to Bet v 1m (in words)” value was “High affinity; also recorded: strongly binds”. Also, in data set [5], the “Absorption maxima, Flavonoid” value was 364 nm.

As for `O=c1c(O[C@@H]2O[C@H](CO)[C@@H](O)[C@H](O)[C@H]2O[C@@H]2O[C@H](CO)[C@@H](O)[C@H](O)[C@H]2O)c(-c2ccc(O)c(O)c2)oc2cc(O)cc(O)c12` [Q3OS, quercetin-3-O-sophoroside], at Bet v 1a [1] (setting [8]), the Kd per residue result is on record as “Int./Slow Ex”. Also, the Kd on Bet v 1a [1] (NMR, average of all analysable residues with CSPs > 0.08 ppm, ± standard deviation, read-out: Dissociation constant Kd (averaged Kd app)) is less than 1 µM; at Bet v 1a [7], 0.57 µM. The “influence of ligand on IgE binding of Bet v 1 isoforms” value in data set [2] is listed as “does not significantly influence”. For the same molecule, the “Dissociation constant Kd (averaged Kd app)” value is “No binding” at Bet v 1m [3] (NMR, average of all analysable residues with CSPs > 0.08 ppm, ± standard deviation) and “No binding” on Bet v 1d. Moreover, the “binding to Bet v 1d (in words)” value on Bet v 1d was “did not produce significant CSPs”. Further, the “binding to Bet v 1m (in words)” value on Bet v 1m [4] was “did not lead to significant CSPs”. Further, the “influence of ligand on mediator release induced by Bet v 1 isoforms” value in data set [6] (5-fold molar excess of ligand, isoforms a, d, m) is “does not significantly influence”. Further, in data set [5], the “Absorption maxima, Flavonoid” value amounted to 358 nm.

B1: Bet v 1d: recombinant hypoallergenic isoform of the major birch pollen allergen Bet v 1 (UniProt P43177) (protein, UniProt P43177 2-160, looked up)
Major pollen allergen Bet v …: GVFNYEIETTSVIPAARLFKAFILDGDNLVPKVAPQAISSVENIEGNGGPGTIKKINFPEGFPFKYVKDRVDEVDHTNFKYNYSVIEGGPVGDTLEKISNEIKIVATPDGGCVLKISNKYHTKGNHEVKAEQVKASKEMGETLLRAVESYLLAHSDAYN
On to B1, for which the IgE-binding capacity result in data set [2] (absence of ligands, pool serum of birch pollen-allergic subjects) was “only marginal”. In addition, the “shift to higher concentration for half-maximum release of β-hexosaminidase in comparison to the other isoforms” value in data set [6] (absence of ligands) is “approximately 10 fold”.
